Experimental data from patent publication US20100204134A1, “USE OF THE PEPTIDE HIS-SER-LEU-GLY-LYS-TRP-LEU-GLY-HIS-PRO-ASP-LYS-PHE ALONE OR IN COMBINATION WITH THE PEPTIDE GLY-ARD-GLY-ASP-ASN-PRO-OH AS A THERAPEUTIC AGENT” (priority 2007, published 2010).
No end group written: not given here.

What was measured:
[1] = test system: HCMV strain AD169; assay: HCMV plaque formation assay; settings: MRC-5 cells; for inhibition of HCMV plaque formation as compared to the virus control: 10 micrograms per ml, 7-10 days
[2] = test system: HIV-1IIIB; assay: HIV-1 antiviral assay in CEM-SS cells; format: cell-based
[3] = test system: hepatitis B virus (HBV) ayw strain; assay: HBV experimental assay system (secreted HBV DNA, TaqMan PCR); format: cell-based; settings: 10 micrograms per ml; HepG2-2.2.15; six days; HBV DNA in supernatant
[4] = test system: Streptococcus pneumoniae; assay: Streptococcus pneumoniae assay; settings: 10 micrograms per ml; 5×10^5 CFU/mL
[5] = test system: murine spleen cells; assay: Th1/Th2 cytokine profiling assay; settings: 10 micrograms per ml; Ovalbumin restimulation; 72 hours
Description: The Balb/c mice (originated in 1923, it is a popular strain and is used in many different research disciplines. Also classified as an inbred from the production of 20 or more successive brother-sister matings, the Balb/c mouse is albino and small in size) were immunized on Days 1, 15, and 29 with Ovalbumin (Ovalbumin is the main protein found in egg white, commonly used to stimulate an immunological reaction in test animals) in PBS (5 micrograms/injection). On day 50, spleens of the mice were harvested (3 weeks after last boost with Ovalbumin). […] Thereafter, additional Ovalbumin was added to the cells at 10 micrograms/ml for in vitro restimulation of the cells. 72 hours later, cell supernatants were harvested and assayed using the Becton Dickinson Mouse Th1/Th2 Cytokine CBA Kit. This kit can be used to measure Interleukin-2 (IL-2), Interleukin-4 (IL-4), Interleukin-5 (IL-5), Interferon-γ (IFN-γ), and Tumor Necrosis Factor-α (TNF-α) protein levels in a single sample.

[6] = test system: HUVEC; assay: Endothelial tube formation assay; settings: 10 micrograms per ml; 20 hours
Protocol: The endothelial tube formation assay is based on the ability of endothelial cells to form three-dimensional capillary-like tubular structures when cultured on a gel of basement membrane extract. […] Pre-labeled HUVEC with Calcein AM were seeded in a 96-well culture plate coated with extracellular metrix (Chemicon international Cat. ECM625) and treated with test peptides—10 micrograms per ml—in full growth medium. Positive control was vehicle only. The endothelial cells were allowed to form tubes for 20 hours and were then examined under an inverted fluorescent microscope. Duplicate wells for each treatment were photographed and quantitatively analyzed for an average tubule length using image analysis software ImageProPlus. Raw data were expressed as average tubule lengths in pixels ±standard deviation. Statistic p values were computed using the Student's t-test.

[7] = test system: Primary Human endothelial cells (HUVEC); assay: Endothelial cell migration assay; format: cell-based; settings: 10 micrograms per ml; 22 hours
Protocol: Primary Human endothelial cells (HUVEC) were seeded in insert chambers with 3 micrometer pore size of multi-transwell plate for 6 hours at 37° C. in Endothelial Cell Basal Medium (EBM) supplemented with 0.1% bovine serum albumin. Thereafter, designated concentration of test peptides—10 micrograms per ml—was added in duplicate wells. The endothelia were allowed to migrate for 22 hours at 37° C., then, migrated cells were fixed and stained with Hoechst 33342 dye. Images of 3 fields per insert were taken and the number of migrated cells per field were quantified using the ImageProPlus software. Data were analyzed for the average number of the migrated cells and standard deviation of six data points for each treatment condition. […] Statistic p values were computed using the Student's t-test.

| Compound | antiviral activity of positive control compounds [2] | inhibition of HCMV plaque formation as compared to the virus control [1] | inhibition of the growth of Streptococcus pneumoniae [4] [%] | change of the production of IFN-γ [5] | change of the production of IL-5 [5] | induction of the production of IL-2 [5] [%] | induction of the production of IL-4 [5] [%] | induction of the production of TNF-alpha [5] [%] | also measured |
| --- | --- | --- | --- | --- | --- | --- | --- | --- | --- |
| Nc1nc(O)c2ncn(COC(CO)CO)c2n1 [Ganciclovir, reference compound] |  |  |  |  |  |  |  |  | antiviral activity of positive control compound ([1]; positive control, HCMV): expected levels of antiviral activity |
| Cc1cn([C@H]2C[C@H](N=[N+]=[N-])[C@@H](CO)O2)c(=O)[nH]c1=O [AZT] | expected levels of antiviral activity |  |  |  |  |  |  |  |  |
| Gly-Arg-Gly-Asp-Asn-Pro-OH (GRGDNP-OH) [Peptide 2] |  | did not inhibit | 100 | did not significantly change | did not significantly change | 58.8 | 55.6 | 23.7 | inhibition of HBV replication as compared to the virus control infection [3]: 36.4%; increase of the tube formation of endothelial cells [6]: 6% |
| His-Ser-Leu-Gly-Lys-Trp-Leu-Gly-His-Pro-Asp-Lys-Phe (HSLGKWLGHPDKF; printed: His-Ser-Leu-Gly-Lys-Trp-Leu-Gly-His-Pro-Asp-Lys-Phe) [Peptide 1] |  | did not inhibit | 100 | did not significantly change | did not significantly change | 106.5 | 117.8 | 21.2 | inhibition of the migration of human endothelial cells [7]: 12%; inhibition of the tube formation of human endothelial cells [6]: 10% |
| CC(C)(C)NC(=O)[C@@H]1CN(Cc2cccnc2)CCN1C[C@@H](O)C[C@@H](Cc1ccccc1)C(=O)N[C@H]1c2ccccc2C[C@H]1O [indinavir] | expected levels of antiviral activity |  |  |  |  |  |  |  |  |
